The source of these data is patent US20240218342A1, “SITE-SPECIFIC GLYCAN REMODELING OF LYSOSOMAL ENZYMES AND APPLICATIONS THEREOF” (priority 2021, published 2024).

For test [1], the target named is CI-MPR (Homo sapiens, UniProt P11717). Particulars: previous studies; read-out: apparent KD; cited from earlier work.
Test [2] has as its system GAA-deficient multinucleated myotubes (KO). The experiment in a line: Cell-associated GAA activity in treated GAA KO myotubes. Format: cell-based, mouse. Conditions: 5 μM for 24 hours, compared to untreated cells. As to the method:
(§1) Muscle cell culture, treatment, processing, and analysis. The biological effect of the Endo-A (69) and Endo-F3 (70) remodeled rhGAA was investigated in an in vitro model of Pompe disease.^[11, 12] The myoblasts are grown on Matrigel (Corning; 354234)-coated 6-well plates at 33° C. in an atmosphere of 5% CO2 in proliferation medium [20% fetal bovine serum, 10% horse serum, 1% chick embryo extract, recombinant IFN-γ (100 U/mL; Life Technologies), 1× penicillin/streptomycin/L-glutamine in high-glucose (4.5 g/L) DMEM]. When the cells reach 70-80% confluency (3-4 days), the medium is switched to differentiation medium [DMEM containing 2% horse serum, 0.5% chick embryo extract, recombinant human insulin (10 μg/mL, Life Technologies, 12585-014), 1× penicillin/streptomycin/L-glutamine], and the cells are moved to 37° C. in an atmosphere of 5% CO2. Myotubes begin to form within 3-4 days; they can survive for ˜ 8-10 days in culture until they start twitching and detach from the surface. […]
Measurement of cell-associated GAA activity. The GAA activity in the cells was measured by using 4-methylumbelliferyl-α-D-glucopyranoside (4-MU-α-glucopyranoside; Sigma-Aldrich #M9766) as the fluorogenic GAA substrate as described.^[13] […] Fluorescence was measured on a multi-label plate reader (TECAN, SPARK 10M) at 360 nm excitation/465 nm emission.

Test [3] shares this test system. Briefly: LAMP1 immunofluorescence (lysosomal swelling) in GAA KO myotubes. Conditions: 5 μM for 24 hours, confocal images. Format: cell-based, mouse. As to the method:
Muscle cell culture, treatment, processing, and analysis. The biological effect of the Endo-A (69) and Endo-F3 (70) remodeled rhGAA was investigated in an in vitro model of Pompe disease.^[11, 12] The myoblasts are grown on Matrigel (Corning; 354234)-coated 6-well plates at 33° C. in an atmosphere of 5% CO2 in proliferation medium [20% fetal bovine serum, 10% horse serum, 1% chick embryo extract, recombinant IFN-γ (100 U/mL; Life Technologies), 1× penicillin/streptomycin/L-glutamine in high-glucose (4.5 g/L) DMEM]. When the cells reach 70-80% confluency (3-4 days), the medium is switched to differentiation medium [DMEM containing 2% horse serum, 0.5% chick embryo extract, recombinant human insulin (10 μg/mL, Life Technologies, 12585-014), 1× penicillin/streptomycin/L-glutamine], and the cells are moved to 37° C. in an atmosphere of 5% CO2. Myotubes begin to form within 3-4 days; they can survive for ˜ 8-10 days in culture until they start twitching and detach from the surface.
The commercial rhGAA, Endo-A- or Endo-F3 remodeled rhGAA were added to the myotubes (on day 8 in differentiation medium) at a concentration of 5 μM for 24 hours; n=5 independent experiments for each condition. Wild type (WT) immortalized myotubes and untreated KO myotubes were used for comparison. The cells were homogenized on ice in deionized H2O, sonicated, and centrifuged at 18,000×g at 4° ° C. for 15 min. […]

The test system is the same in test [4]. Briefly: Western blotting of treated GAA KO myotube lysates. Format: cell-based, mouse. Particulars: 5 μM for 24 hours. As to the method:
as §1
Western blotting. […] Protein concentrations of the supernatants were measured using the Bio-Rad Protein Assay (Bio-Rad Laboratories, Inc.), and equal amounts of protein were run on SDS-PAGE gels (Invitrogen, Carlsbad, CA). […]

“Also recorded” adds a separate entry of the source.

Chain of CI-MPR (P11717 41-2491, species assumed): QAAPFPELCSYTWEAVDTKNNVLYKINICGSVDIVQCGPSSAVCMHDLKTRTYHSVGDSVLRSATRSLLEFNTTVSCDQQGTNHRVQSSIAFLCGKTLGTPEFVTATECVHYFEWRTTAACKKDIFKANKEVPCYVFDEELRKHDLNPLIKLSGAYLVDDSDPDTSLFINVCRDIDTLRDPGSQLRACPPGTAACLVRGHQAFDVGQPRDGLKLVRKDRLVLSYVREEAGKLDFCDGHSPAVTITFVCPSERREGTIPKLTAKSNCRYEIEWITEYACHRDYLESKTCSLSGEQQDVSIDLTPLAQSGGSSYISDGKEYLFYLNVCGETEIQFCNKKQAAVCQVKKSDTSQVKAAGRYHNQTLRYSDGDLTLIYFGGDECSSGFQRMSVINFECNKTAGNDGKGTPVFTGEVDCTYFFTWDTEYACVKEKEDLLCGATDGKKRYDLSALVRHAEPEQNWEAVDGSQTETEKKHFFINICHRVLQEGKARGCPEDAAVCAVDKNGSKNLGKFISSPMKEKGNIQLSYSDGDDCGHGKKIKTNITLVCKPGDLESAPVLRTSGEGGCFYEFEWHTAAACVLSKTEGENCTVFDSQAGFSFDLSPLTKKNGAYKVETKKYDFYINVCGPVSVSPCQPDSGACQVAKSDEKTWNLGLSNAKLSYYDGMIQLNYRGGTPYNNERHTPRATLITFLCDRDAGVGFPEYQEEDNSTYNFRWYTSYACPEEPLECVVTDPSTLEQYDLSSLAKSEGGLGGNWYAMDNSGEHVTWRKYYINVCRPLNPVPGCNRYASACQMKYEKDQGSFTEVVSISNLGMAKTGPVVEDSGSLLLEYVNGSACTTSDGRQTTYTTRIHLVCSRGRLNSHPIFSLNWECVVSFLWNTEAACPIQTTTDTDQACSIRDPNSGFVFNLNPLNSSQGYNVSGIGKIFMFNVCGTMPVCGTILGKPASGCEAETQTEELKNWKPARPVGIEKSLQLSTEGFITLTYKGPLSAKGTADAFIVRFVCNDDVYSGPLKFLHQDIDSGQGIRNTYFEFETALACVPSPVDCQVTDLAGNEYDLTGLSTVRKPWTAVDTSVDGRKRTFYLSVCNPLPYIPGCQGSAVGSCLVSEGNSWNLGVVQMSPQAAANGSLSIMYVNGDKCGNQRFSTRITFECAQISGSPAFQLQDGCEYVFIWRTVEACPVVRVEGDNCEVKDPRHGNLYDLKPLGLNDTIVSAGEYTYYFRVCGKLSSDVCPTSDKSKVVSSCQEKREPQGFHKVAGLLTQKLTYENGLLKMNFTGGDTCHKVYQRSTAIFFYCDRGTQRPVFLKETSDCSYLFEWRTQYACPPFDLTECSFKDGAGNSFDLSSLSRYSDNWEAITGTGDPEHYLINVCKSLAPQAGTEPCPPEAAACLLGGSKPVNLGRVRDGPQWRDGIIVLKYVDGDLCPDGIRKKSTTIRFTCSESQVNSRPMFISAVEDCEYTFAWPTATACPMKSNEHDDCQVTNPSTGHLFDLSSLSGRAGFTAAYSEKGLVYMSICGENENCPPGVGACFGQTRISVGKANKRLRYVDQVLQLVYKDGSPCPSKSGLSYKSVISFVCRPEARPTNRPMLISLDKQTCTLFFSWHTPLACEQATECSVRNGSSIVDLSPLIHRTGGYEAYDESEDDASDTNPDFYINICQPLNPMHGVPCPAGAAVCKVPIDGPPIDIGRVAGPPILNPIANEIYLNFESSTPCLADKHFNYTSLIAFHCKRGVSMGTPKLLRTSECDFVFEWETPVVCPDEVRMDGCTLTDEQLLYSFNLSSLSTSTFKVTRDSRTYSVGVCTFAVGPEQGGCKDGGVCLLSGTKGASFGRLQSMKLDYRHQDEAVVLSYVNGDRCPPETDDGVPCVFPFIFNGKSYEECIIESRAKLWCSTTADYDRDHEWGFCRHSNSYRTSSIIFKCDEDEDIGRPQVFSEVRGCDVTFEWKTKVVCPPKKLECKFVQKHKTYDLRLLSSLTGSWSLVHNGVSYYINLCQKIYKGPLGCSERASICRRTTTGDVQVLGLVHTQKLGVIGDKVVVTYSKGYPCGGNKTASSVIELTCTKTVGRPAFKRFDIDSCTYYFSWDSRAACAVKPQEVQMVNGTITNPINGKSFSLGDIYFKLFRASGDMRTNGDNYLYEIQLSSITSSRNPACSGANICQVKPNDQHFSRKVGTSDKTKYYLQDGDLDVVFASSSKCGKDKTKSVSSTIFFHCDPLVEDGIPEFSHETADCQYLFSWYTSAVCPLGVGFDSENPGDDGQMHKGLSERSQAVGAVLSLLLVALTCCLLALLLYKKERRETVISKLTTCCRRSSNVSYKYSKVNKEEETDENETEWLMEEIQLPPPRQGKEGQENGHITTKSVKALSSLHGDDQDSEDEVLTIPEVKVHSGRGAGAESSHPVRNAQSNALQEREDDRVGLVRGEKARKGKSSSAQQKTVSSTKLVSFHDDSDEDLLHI

In the case of “ATB200: novel rhGAA carrying a higher M6P content that binds the CI-MPR with high affinity (previous studies)”, the Kd in test [1] is 2 to 4 nM.

Take “Lumizyme: recombinant human acid α-glucosidase (alglucosidase alfa, Genzyme), therapeutic lysosomal enzyme for Pompe disease”: the “GAA activity in cell lysates (cellular uptake)” value in test [2] is given as “only a slight increase (statistically insignificant)”. Further, the “enlarged LAMP1-positive lysosomes” value in test [3] is on record as “Enlarged lysosomes were seen; also recorded: can be detected; also recorded: contain enlarged LAMP1-positive lysosomes”. Besides, in test [4] (Western blot), the “levels of endosomal (Rab5) and lysosomal (LAMP1) markers” value was “remained the same as in the untreated GAA-deficient cells”. Besides, the “processed, mature lysosomal form of rhGAA (76 kDa) in cells” value in test [4] (Western blot with anti-human GAA antibodies) is listed as “barely detectable”.
